The values that follow come from PMC9139979, “Features of ZED1227: The First-In-Class Tissue Transglutaminase Inhibitor Undergoing Clinical Evaluation for the Treatment of Celiac Disease” (Cells, 2022).

Data set [1] in a line: Caco-2 cell permeability assay (CacoReady). It counts as in vitro ADME. Conditions: human, apical 200 μM, HBSS pH 6.5, 1% DMSO. As for the experimental part:
The permeability coefficient (Papp value) was obtained from Caco-2 monolayer studies predicting oral/intestinal bioavailability of the tested compound. The assay was performed using CacoReady^TM ready-to-use kits from ReadyCell according to the manufacturer’s protocol. […] The concentration of ZED1227 in the basal and apical media was determined by HPLC. The initial concentration of ZED1227 in the apical medium was 200 μM. Propranolol (20 μM final concentration) was used as a control to validate each ready-to-use plate. Compound stock solutions were prepared in DMSO and further diluted to 1% DMSO using HBSS pH 6.5 to yield the desired working concentration.
A general note: Caco-2 monolayers are a common model of the intestinal barrier.

The nature of data set [2]: Reactivity towards thiols (excess glutathione). The class given is physicochemical. Conditions: 160-fold excess GSH, 25 °C, after 48 h. As for the experimental part:
To exclude undesired reactions of ZED1227 with biological thiols, an investigation was performed with the tripeptide glutathione (GSH) as a surrogate. ZED1227 (60 μM) was incubated with a 160-fold excess of glutathione (10,000 μM) in aqueous media [containing 7% (v/v) tetrahydrofuran and 13% (v/v) methanol] at ambient temperature (25 °C). The parent compound and the GSH-adduct formed after 48 h were determined by HPLC (vide supra).

Data set [3] can be described thus: Stability in PBS and artificial gastric and intestinal fluid (residual parent compound). Conditions: for Stability in PBS/saline (residual parent compound): initial 100 μM. The class given is physicochemical. As for the experimental part: The logD value (distribution coefficient) of the compound was determined by means of the shake flask method, measuring the distribution of the solute in octanol and phosphate-buffered saline (PBS, pH 7.4). The concentration of ZED1227 in the immiscible solvents was determined by HPLC (vide supra). The stability in PBS (pH 7.4 or acidified to pH 5.0), in artificial gastric, and intestinal fluid was calculated as the percentage of residual parent compound after incubation for 24 h at 37 °C, using an initial concentration of 100 μM.

Another data set has as its target T1, hTG1 (Homo sapiens, UniProt P22735).
T1 construct: purchased Zedira T035
T1 sequence (P22735 1-817): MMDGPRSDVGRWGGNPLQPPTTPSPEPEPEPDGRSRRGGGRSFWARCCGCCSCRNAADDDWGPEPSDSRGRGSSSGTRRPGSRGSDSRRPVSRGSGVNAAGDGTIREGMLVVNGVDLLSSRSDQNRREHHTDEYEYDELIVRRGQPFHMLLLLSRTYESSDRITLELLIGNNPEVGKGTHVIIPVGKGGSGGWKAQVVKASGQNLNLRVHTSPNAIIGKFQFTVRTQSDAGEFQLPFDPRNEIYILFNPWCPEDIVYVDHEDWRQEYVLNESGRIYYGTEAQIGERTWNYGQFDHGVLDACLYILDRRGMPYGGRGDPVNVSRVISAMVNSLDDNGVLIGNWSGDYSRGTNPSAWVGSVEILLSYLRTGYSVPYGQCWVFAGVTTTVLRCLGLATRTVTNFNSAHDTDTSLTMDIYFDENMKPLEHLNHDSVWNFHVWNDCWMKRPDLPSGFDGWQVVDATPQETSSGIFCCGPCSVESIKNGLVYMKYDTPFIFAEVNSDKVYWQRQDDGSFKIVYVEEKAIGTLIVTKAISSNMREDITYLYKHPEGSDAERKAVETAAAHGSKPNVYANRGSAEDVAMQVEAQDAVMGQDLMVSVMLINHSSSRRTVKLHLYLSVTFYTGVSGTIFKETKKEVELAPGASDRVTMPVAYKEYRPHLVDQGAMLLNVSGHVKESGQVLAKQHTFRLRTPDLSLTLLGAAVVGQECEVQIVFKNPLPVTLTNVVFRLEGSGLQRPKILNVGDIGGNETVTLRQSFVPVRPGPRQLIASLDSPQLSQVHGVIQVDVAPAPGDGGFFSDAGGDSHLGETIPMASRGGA
The data set can be described thus: Fluorescent transamidation assay (DCC-assay), hTG1. The class given is biochemical. The protocol: Inhibition data were determined using the fluorescent transamidation assay (dansylcadaverine incorporation into glutamine-donor substrate N,N-dimethyl casein, DCC-assay). Briefly, to 15 μL of ZED1227 solution (dissolved and serial diluted in 2% (v/v) DMSO/assay buffer), 285 μL assay buffer [47.5 mM tris(hydroxymethyl)aminomethane, 9.5 mM CaCl2, 9.5 mM glutathione, 2.4% (v/v) glycerol, 190 mM NaCl, pH 8.0] containing dansylcadaverine (15.9 μM), N,N-dimethyl casein (3.8 μM) and the indicated recombinant transglutaminase enzyme [0.95 μg/mL hTG1 (T035), 0.81 μg/mL hTG2 (T022), 0.83 μg/mL hTG6 (T021), all from Zedira] were added, mixed and the kinetic measurement started immediately. […]
Fluorescence emission was continuously monitored for 30 min at λem = 500 nm (λex = 330 nm) and 37 °C using a CLARIOstar fluorescence plate reader (BMG Labtech, Ortenberg, Germany). […] The respective IC50 (and IC90 for TG2) values were calculated by non-linear regression using the MARS software package (BMG Labtech). […]
To facilitate comparability during lead structure optimization and to roughly estimate concentrations needed at the target site, the apparent IC50 values (calculated by four-parameter non-linear fit by MARS software) for irreversible inhibitors are more instructive and are therefore reported. […]

pIC50: −log10 of the molar value.

Usually Papp A→B stands for how fast a substance crosses the layer from the apical side. Read a low Papp A→B as poor permeation. The pIC50 is −log10 of the IC50, conventionally taken in molar units.

Take `CCC(CC)CNC(=O)Cn1cccc(NC(=O)[C@H](CC/C=C/C(=O)OC)NC(=O)c2cncn2C)c1=O` [ZED1227, (S,E)-Methyl 7-(1-(2-(2-ethylbutylamino)-2-oxoethyl)-2-oxo-1,2-dihydropyridin-3-ylamino)-6-(1-methyl-1H-imidazole-5-carboxamido)-7-oxohept-2-enoate]: the Papp A→B at 200 μM in data set [1] was under 1 ×10⁻⁶ cm/s. In addition, in data set [2] (60 μM compound), the “Reactivity towards excess glutathione: parent drug compound recovery” value is recorded as 98% parent drug compound recovery (after 48 h). The Glutathione-adduct formed in data set [2] is recorded as 2%. For the same molecule, in data set [3] (after 24 h, summary statement), the “Recovery at low pH and in simulated gastric and intestinal fluid” value is over 80%. The “Stability in PBS/saline (residual parent compound)” value turned out to be 89% in data set [3] (pH 5.0, 24 h, 37 °C) and 10% in data set [3] (pH 7.4, 24 h, 37 °C). The “Stability in artificial gastric fluid (residual parent compound)” value in data set [3] (simulated gastric fluid pH 1.2, 24 h, 37 °C) is listed as 95%. The “Stability in artificial intestinal fluid (residual parent compound)” value in data set [3] (simulated intestinal fluid pH 6.5, 24 h, 37 °C) was 82%. For the same molecule, the “Selectivity hTG1 versus hTG2” value at hTG1 (ratio of app. IC50 values) was found to be 469 fold. Moreover, the pIC50 at hTG1 (recombinant, transamidation assay, read-out: App. IC50 hTG1) was 4.60.
